Counter-ions that a name gives are not always drawn. Like-named read-outs stand apart in the source and are kept apart here.

This experiment concerns Acinetobacter baumannii ATCC 17961. As to the kind of experiment: Antimicrobial susceptibility testing: 90% growth inhibitory concentration (IC90) determination. To be noted: read-out: ATCC 17961 IC90. Format: cell-based. Summed up:
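Growth was followed kinetically by OD600 at 20-min intervals for 16 h at 35±2 °C, with ~5×10^5 CFU/ml in Iso-Sensitest broth. Compounds were tested as twofold dilutions (e.g. 50–0.097 μM final). The concentration giving 90% inhibition of log-phase growth was reported.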

[1] abbreviates: ATCC17961, Acinetobacter baumannii ATCC 17961, Iso-Sensitest broth.
The mark [2] stands for this setting: Acinetobacter baumannii ATCC 17961, Iso-Sensitest broth.

As for `C#CCn1cc(-c2cnc(C(=O)Nc3ccc(C(=O)N[C@H]4[C@@H]5CN(C(=O)N[C@@H]6CNC[C@H]6O)C[C@@H]54)c(Cl)c3)n2C)c(C(F)(F)F)n1` [Example 384, (1R,5S,6s)-6-(2-chloro-4-(1-methyl-5-(1-(prop-2-yn-1-yl)-3-(trifluoromethyl)-1H-pyrazol-4-yl)-1H-imidazole-2-carboxamido)benzamido)-N-((3R,4R)-4-hydroxypyrrolidin-3-yl)-3-azabicyclo[3.1.0]hexane-3-carboxamide formate], the IC90 under setting [1] was 0.064 µM.

For the molecule `Cn1c(-c2cn(CC(F)F)nc2C(F)(F)F)cnc1C(=O)Nc1ccc(C(=O)N[C@H]2[C@@H]3CN(C(=O)N[C@@H]4CNC[C@H]4O)C[C@@H]32)c(Cl)c1` [Example 386, (1R,5S,6s)-6-(2-chloro-4-(5-(1-(2,2-difluoroethyl)-3-(trifluoromethyl)-1H-pyrazol-4-yl)-1-methyl-1H-imidazole-2-carboxamido)benzamido)-N-((3R,4R)-4-hydroxypyrrolidin-3-yl)-3-azabicyclo[3.1.0]hexane-3-carboxamide formate], the IC90 under setting [1] came out at 0.11 µM.

As for `C=CCn1cc(-c2cnc(C(=O)Nc3ccc(C(=O)N[C@H]4[C@@H]5CN(C(=O)N[C@@H]6CNC[C@H]6O)C[C@@H]54)c(Cl)c3)n2C)c(C(F)(F)F)n1` [Example 387, (1R,5S,6s)-6-(4-(5-(1-allyl-3-(trifluoromethyl)-1H-pyrazol-4-yl)-1-methyl-1H-imidazole-2-carboxamido)-2-chlorobenzamido)-N-((3R,4R)-4-hydroxypyrrolidin-3-yl)-3-azabicyclo[3.1.0]hexane-3-carboxamide formate], the IC90 under setting [1] was determined as 0.13 µM.

Consider `Cn1c(-c2cn(CC3CCC3)nc2C(F)(F)F)cnc1C(=O)Nc1ccc(C(=O)N[C@H]2[C@@H]3CN(C(=O)N[C@@H]4CNC[C@H]4O)C[C@@H]32)c(Cl)c1` [Example 388, (1R,5S,6s)-6-(2-chloro-4-(5-(1-(cyclobutylmethyl)-3-(trifluoromethyl)-1H-pyrazol-4-yl)-1-methyl-1H-imidazole-2-carboxamido)benzamido)-N-((3R,4R)-4-hydroxypyrrolidin-3-yl)-3-azabicyclo[3.1.0]hexane-3-carboxamide formate], for which the IC90 under setting [1] amounted to 0.17 µM.

With “N-(3-amino-3- methylcyclobutyl)-4-[2-chloro- 4-[[5-[1-cyclopropyl-3- (trifluoromethyl)pyrazol-4-yl]- 1-methylimidazole-2- carbonyl]amino]benzoyl]pipera- zine-1-carboxamide;formic acid [Example 238]”, the 90% effect concentration (IC90) under setting [2] was 0.273 µM.

With “N-[4-[4-[(3S)-3-carbonyl]piperazine-1-carbonyl]-3-chlorophenyl]-1-methyl-5-[1-prop-2-ynyl-3-(trifluoromethyl)pyrazol-4-yl]imidazole-2-carboxamide [Example 80]”, the IC90 under setting [2] was found to be 0.212 µM.

As for “N-[4-[(4-aminocyclohexyl)carbamoyl]-3-chlorophenyl]-1-methyl-5-[3-(trifluoromethyl)-1H-pyrazol-4-yl]imidazole-2-carboxamide;2,2,2-trifluoroacetic acid [Example 123]”, the IC90 under setting [2] was found to be 3.84 µM.

For “formic acid;rac-(1S,5R)-8-[2- chloro-4-[[5-[1-(2,2- difluorocyclopropyl)-3- (trifluoromethyl)pyrazol-4-yl]- 1-methyl-imidazole-2- carbonyl]amino]benzoyl]-N- [rac-(3S,4S)-4- hydroxypyrrolidin-3-yl]-3,8- diazabicyclo[3.2.1]octane-3- carboxamide [Example 377]”, the IC90 under setting [2] is 0.497 µM.

In the case of “rac-4-(2-chloro-4-(5-(1- cyclopropyl-3-(trifluoromethyl)- 1H-pyrazol-4-yl)-1-methyl-1H- imidazole-2- carboxamido)benzoyl)-N- ((1s,3s)-3- (methylamino)cyclobutyl)pipera- zine-1-carboxamide formate [Example 256]”, the IC90 under setting [2] was found to be 0.313 µM.

Usually IC90 stands for the concentration needed for an effect of 90%.

These data come from patent US11390604B2 (Hoffmann-La Roche Inc., priority 2019, dated 2022).
